Source: ChEMBL document CHEMBL5223132, “Structure-activity relationships of mixed σ1R/σ2R ligands with antiproliferative and anticancer effects” (Bioorg Med Chem, 2022)
pEC50, pIC50, pKi: −log10 of the molar value.

How the values were obtained:
[1] = target: ATP-dependent translocase ABCB1 (Homo sapiens, UniProt P08183); experiment: Inhibition of P-gp transporter (unknown origin) expressed in dog MDCK-MDR1 assessed as inhibition of fluorescent Calcein-AM transport by fluorescence based assay; format: cell-based
[2] = target: T1, Sigma intracellular receptor 2 (Rattus norvegicus, UniProt Q5U3Y7); experiment: Displacement of [3H]DTG from sigma 2 receptor expressed in rat liver membranes assessed as inhibition constant in presence of (+)-pentazocine by radioligand binding assay; format: cell membranes, Membrane
T1 sequence (Q5U3Y7 whole entry): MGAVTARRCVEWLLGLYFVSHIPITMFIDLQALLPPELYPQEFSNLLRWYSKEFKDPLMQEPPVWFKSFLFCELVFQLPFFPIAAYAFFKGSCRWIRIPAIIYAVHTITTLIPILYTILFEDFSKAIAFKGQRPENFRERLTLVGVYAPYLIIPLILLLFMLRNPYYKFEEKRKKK

PC-3 = experiment: Antiproliferative activity against human PC-3 cells assessed as reduction in cell viability incubated for 48 hrs by MTT assay; format: functional, cell-based; settings: PC-3, 48 h
[3] = target: T2, Sigma non-opioid intracellular receptor 1 (Cavia porcellus, UniProt Q60492); experiment: Displacement of [3H]pentazocine from sigma 1 receptor expressed in guinea pig brain membranes assessed as inhibition constant by radioligand binding assay; format: cell membranes, Membrane
SK-N-SH = experiment: Antiproliferative activity against human SK-N-SH cells assessed as reduction in cell viability incubated for 48 hrs by MTT assay; format: functional, cell-based
[4] = target: T3, Sigma intracellular receptor 2 (Homo sapiens, UniProt Q5BJF2); experiment: Binding affinity to human sigma 2 receptor
[5] = target: T4, Sigma non-opioid intracellular receptor 1 (Homo sapiens, UniProt Q99720); experiment: Binding affinity to sigma 1 receptor (unknown origin)
[6] = target: T3, Sigma intracellular receptor 2; experiment: Binding affinity to sigma 2 receptor (unknown origin)
MCF7 [7] = experiment: Antiproliferative activity against human MCF7 cells assessed as reduction in cell viability; format: functional, cell-based
A-427 = experiment: Antiproliferative activity against human A-427 cells assessed as reduction in cell viability; format: functional, cell-based
5637 = experiment: Antiproliferative activity against human 5637 cells assessed as reduction in cell viability; format: functional, cell-based
[8] = target: T1, Sigma intracellular receptor 2; experiment: Binding affinity to sigma 2 receptor expressed in rat liver; format: tissue-based
[9] = target: T3, Sigma intracellular receptor 2; experiment: Binding affinity to sigma 2 receptor (unknown origin) expressed in human RT-4 cells; format: cell-based
[10] = target: T3, Sigma intracellular receptor 2; experiment: Displacement of [H3]DTG from sigma 2 receptor (unknown origin) by competition binding assay
[11] = target: T4, Sigma non-opioid intracellular receptor 1; experiment: Binding affinity to human sigma 1 receptor
[12] = target: T1, Sigma intracellular receptor 2; experiment: Displacement of [3H]DTG from sigma 2 receptor expressed in rat liver membranes assessed as inhibition constant incubated for 120 mins in presence of (+)-SKF10047 by radioligand binding assay; format: cell membranes, Membrane
[13] = target: T2, Sigma non-opioid intracellular receptor 1; experiment: Displacement of [3H]pentazocine from sigma 1 receptor expressed in guinea pig brain membranes assessed as inhibition constant incubated for 150 mins by radioligand binding assay; format: cell membranes, Membrane
SK-MEL-28 [14] = experiment: Anti-proliferative against human SK-MEL-28 cells assessed as reduction in cell viability incubated for 24 hrs by MTT assay; format: functional, cell-based; settings: SK-MEL-28, 24 h
SK-MEL-28 [15] = experiment: Anti-proliferative against human SK-MEL-28 cells assessed as reduction in cell viability incubated for 48 hrs by MTT assay; format: functional, cell-based; settings: SK-MEL-28, 48 h
MDA-MB-231 [16] = experiment: Anti-migratory activity against human MDA-MB-231 cells assessed as reduction in cell migration at 10 uM and measured after 12 hrs by wound healing assay; format: functional; parameters: scale not given: the % may be the effect or the level left
MDA-MB-231 [17] = experiment: Anti-invasive activity against human MDA-MB-231 cells assessed as decrease in cell invasion at 10 uM incubated for 24 hrs by 3D spheroid invasion assay; format: functional; parameters: scale not given: the % may be the effect or the level left
[18] = target: T4, Sigma non-opioid intracellular receptor 1; experiment: Displacement of [H3]DTG from sigma 1 receptor (unknown origin) by competition binding assay
[19] = Binding affinity to human sigma 1 receptor
[20] = Anti-proliferative against human U-87 MG cells assessed as reduction in cell viability incubated for 24 hrs by MTT assay; format: functional, cell-based, U-87MG ATCC
[21] = Anti-proliferative against human U-87 MG cells assessed as reduction in cell viability incubated for 48 hrs by MTT assay; format: functional, cell-based, U-87MG ATCC
[22] = Anti-proliferative against human U-87 MG cells assessed as reduction in cell viability incubated for 72 hrs by MTT assay; format: functional, cell-based, U-87MG ATCC
MDCK-MDR1 [23] = experiment: Anticancer against dog MDCK-MDR1 cells assessed as reduction in cell viability at 30 uM incubated for 48 hrs in presence of doxorubicin by MTT assay; format: functional, Canis lupus familiaris
MDCK-MDR1 [24] = experiment: Anticancer against dog MDCK-MDR1 cells assessed as reduction in cell viability at 50 uM incubated for 48 hrs in presence of doxorubicin by MTT assay; format: functional, Canis lupus familiaris
MDCK-MDR1 [25] = experiment: Anticancer against dog MDCK-MDR1 cells assessed as reduction in cell viability at 50 uM incubated for 48 hrs by MTT assay; format: functional, Canis lupus familiaris
[26] = target: T4, Sigma non-opioid intracellular receptor 1; experiment: Binding affinity to sigma 1 receptor (unknown origin) expressed in human RPMI-8226 cells; format: cell-based
RPMI-8226 [27] = experiment: Antiproliferative activity against human RPMI-8226 cells assessed as reduction in cell viability; format: functional, cell-based
[28] = target: T2, Sigma non-opioid intracellular receptor 1; experiment: Binding affinity to sigma 1 receptor expressed in guinea pig brain; format: tissue-based
RPMI-8226 [29] = experiment: Anti-proliferative against human RPMI-8226 cells assessed as reduction in cell viability at 40 uM incubated for 24 hrs by MTT assay; format: functional
[30] = Anti-proliferative against human U-87 MG cells assessed as reduction in cell viability at 40 uM incubated for 24 hrs by MTT assay; format: functional, U-87MG ATCC
RPMI-8226 [31] = experiment: Induction of apoptosis in human RPMI-8226 cells assessed as total apoptotic cells incubated for 48 hrs by annexin-V/propidium iodide staining based flow cytometry; format: functional
MCF7 [32] = experiment: Antiproliferative activity against human MCF7 cells assessed as reduction in cell proliferation at 100 uM incubated for 48 hrs by MTT assay; format: functional; parameters: scale not given: the % may be the effect or the level left
D(2) dopamine receptor = D(2) dopamine receptor (Homo sapiens, UniProt P14416); experiment: Binding affinity to D2R receptor (unknown origin)
[33] = target: T5, 5-hydroxytryptamine receptor 1A (Homo sapiens, UniProt P08908); experiment: Binding affinity to 5-HT1A receptor (unknown origin) by […]
T5 sequence (P08908 whole entry): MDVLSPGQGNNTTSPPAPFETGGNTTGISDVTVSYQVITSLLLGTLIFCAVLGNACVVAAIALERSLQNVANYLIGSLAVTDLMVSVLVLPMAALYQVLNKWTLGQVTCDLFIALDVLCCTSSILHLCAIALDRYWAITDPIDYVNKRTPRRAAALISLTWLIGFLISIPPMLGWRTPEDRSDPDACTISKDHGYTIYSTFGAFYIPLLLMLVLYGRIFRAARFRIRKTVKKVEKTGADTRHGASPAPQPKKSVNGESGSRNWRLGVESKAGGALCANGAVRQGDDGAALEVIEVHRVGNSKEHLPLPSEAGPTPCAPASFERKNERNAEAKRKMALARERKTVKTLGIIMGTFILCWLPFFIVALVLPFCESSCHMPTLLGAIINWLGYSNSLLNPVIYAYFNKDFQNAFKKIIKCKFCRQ

T3 sequence (Q5BJF2 whole entry): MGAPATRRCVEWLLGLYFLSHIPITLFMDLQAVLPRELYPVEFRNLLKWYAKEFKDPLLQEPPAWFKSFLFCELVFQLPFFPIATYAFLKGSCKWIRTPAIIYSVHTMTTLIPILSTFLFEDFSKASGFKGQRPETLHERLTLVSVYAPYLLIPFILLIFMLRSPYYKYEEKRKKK
T4 sequence (Q99720 whole entry): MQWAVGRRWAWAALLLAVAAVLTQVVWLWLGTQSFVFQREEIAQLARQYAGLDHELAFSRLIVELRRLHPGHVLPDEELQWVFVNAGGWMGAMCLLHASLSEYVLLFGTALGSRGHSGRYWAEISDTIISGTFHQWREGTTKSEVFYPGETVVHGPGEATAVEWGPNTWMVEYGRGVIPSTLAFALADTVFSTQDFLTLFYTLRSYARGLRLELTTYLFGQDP
T2 sequence (Q60492 whole entry): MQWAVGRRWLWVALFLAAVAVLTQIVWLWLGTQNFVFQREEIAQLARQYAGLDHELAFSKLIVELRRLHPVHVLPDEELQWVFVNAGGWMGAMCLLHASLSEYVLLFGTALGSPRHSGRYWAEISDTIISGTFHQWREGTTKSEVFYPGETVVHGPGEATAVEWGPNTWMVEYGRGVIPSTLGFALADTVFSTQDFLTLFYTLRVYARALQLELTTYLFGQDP
Chain of ATP-dependent translocase ABCB1 (P08183 whole entry): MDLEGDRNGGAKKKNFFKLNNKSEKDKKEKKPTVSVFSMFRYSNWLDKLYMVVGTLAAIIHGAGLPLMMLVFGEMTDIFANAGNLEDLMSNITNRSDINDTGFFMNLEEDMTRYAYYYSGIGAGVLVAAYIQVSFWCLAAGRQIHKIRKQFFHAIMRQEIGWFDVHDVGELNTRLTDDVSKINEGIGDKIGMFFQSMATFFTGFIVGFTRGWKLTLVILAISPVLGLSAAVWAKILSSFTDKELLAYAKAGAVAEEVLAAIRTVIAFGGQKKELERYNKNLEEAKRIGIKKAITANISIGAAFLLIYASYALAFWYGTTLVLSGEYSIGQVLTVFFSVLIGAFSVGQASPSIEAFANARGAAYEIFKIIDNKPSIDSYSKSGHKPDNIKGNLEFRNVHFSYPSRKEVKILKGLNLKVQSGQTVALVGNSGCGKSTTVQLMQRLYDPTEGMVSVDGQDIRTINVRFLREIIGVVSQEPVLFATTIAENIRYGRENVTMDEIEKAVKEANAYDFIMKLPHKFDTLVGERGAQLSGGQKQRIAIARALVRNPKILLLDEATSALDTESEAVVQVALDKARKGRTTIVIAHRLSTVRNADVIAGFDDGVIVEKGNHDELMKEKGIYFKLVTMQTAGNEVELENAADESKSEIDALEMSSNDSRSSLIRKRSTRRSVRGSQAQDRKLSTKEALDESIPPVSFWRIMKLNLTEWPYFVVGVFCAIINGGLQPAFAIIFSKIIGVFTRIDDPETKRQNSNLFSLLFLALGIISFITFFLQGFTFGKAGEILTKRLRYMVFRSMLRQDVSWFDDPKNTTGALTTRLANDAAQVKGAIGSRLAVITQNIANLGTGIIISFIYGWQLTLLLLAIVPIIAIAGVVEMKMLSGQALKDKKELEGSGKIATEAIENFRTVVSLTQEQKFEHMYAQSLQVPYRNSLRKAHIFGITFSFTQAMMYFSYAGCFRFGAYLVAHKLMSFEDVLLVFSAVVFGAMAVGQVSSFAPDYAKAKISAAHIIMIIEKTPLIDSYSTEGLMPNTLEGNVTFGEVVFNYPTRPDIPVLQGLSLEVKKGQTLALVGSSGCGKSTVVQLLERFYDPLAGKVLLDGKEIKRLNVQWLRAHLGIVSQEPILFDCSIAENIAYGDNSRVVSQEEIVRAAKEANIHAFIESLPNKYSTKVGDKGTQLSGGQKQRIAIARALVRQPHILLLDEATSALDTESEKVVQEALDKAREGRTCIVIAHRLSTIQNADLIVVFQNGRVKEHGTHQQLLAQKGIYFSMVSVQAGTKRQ
Chain of D(2) dopamine receptor (P14416 whole entry): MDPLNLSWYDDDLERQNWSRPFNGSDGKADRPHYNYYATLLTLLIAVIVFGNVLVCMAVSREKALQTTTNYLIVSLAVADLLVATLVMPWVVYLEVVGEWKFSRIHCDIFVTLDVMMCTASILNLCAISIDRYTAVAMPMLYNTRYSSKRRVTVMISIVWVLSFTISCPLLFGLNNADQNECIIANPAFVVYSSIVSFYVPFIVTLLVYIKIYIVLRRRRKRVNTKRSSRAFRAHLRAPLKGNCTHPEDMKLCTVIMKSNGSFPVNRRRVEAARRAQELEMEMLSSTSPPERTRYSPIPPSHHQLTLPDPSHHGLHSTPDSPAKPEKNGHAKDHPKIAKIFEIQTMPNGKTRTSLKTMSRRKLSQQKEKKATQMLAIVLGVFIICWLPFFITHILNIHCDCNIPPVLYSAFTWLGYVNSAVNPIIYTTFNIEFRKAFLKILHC

## Fc1cccc(F)c1[C@H]1CC[C@@H](N2CCN(C3CCCCC3)CC2)CC1
[1]
  pEC50: 5.14
[2]
  pKi: 7.85
PC-3
  pEC50: 4.39
[3]
  pKi: 9.20
SK-N-SH
  pEC50: 4.92

## CCCN(CCC)CCc1ccc(OC)c(OCCc2ccccc2)c1
[4]
  pKi: 6.77

## O=c1sc2cc(CCCF)ccc2n1CCN1CCCCCC1
[5]
  pKi: 11.60

## COc1cc2c(cc1OC)CN(CCCCNC(=O)c1cc(C)ccc1OCC[18F])CC2
[6]
  pKi: 8.70
[5]
  pKi: 7.62

## O=C(OCCN1CCOCC1)C1(c2ccccc2)CCCCC1
[4]
  pKi: 4.49

## OCC[C@H]1CN(CC2CCCCC2)CCN1Cc1ccc(-c2ccccc2)cc1
MCF7 [7]
  pIC50: 5.05
A-427
  pIC50: 5.03
5637
  pIC50: 4.98
[8]
  pKi: 7.14
[9]
  pKi: 7.37

## OCC[C@@H]1CN(CC2CCCCC2)CCN1Cc1ccc(-c2ccccc2)cc1
MCF7 [7]
  pIC50: < 4.70
A-427
  pIC50: 5.46
5637
  pIC50: 5.18
[8]
  pKi: 7.42
[9]
  pKi: 7.41

## COc1ccc(C)cc1NC(=O)OC1CC2CCCC(C1)N2CCCCCCCCCCN (stereo not given)
[10]
  pKi: 8.11

## CCCN1CCC=C(c2cc(-c3ccc(C)cc3)no2)C1
[11]
  pKi: 10.10
[4]
  pKi: 5.86

## c1ccc(CC2CCN(CC3CSC4(CCCCC4)S3)CC2)cc1 (stereo not given)
[12]
  pKi: 7.71
[13]
  pKi: 6.27
SK-MEL-28 [14]
  pIC50: 4.28
SK-MEL-28 [15]
  pIC50: 4.66

## O=C(CCCN1CCCN(c2ccc(Cl)cc2)CC1)c1ccc(F)cc1
MDA-MB-231 [16]
  Activity: 95%
MDA-MB-231 [17]
  Activity: 49%

## CCN(C/C=C\c1ccc(C2CCCCC2)c(Cl)c1)C1CCCCC1
[10]
  pIC50: 7.35
[18]
  pKi: 8.70

## O=C(NC1CCN(Cc2ccccc2)CC1)c1ccc(I)cc1
[19]
  pKi: 8.77
[4]
  pKi: 7.60

## CCCCCCCNCCC1CCN(C)C(c2ccccc2)C1 (stereo not given)
[2]
  pKi: 6.55
[3]
  pKi: 7.80

## CCN(CC)CCNC(=O)c1ccc(OC)c([123I])c1
[6]
  pKi: 6.69
[5]
  pKi: 7.93

## CN1C(=O)CCc2cc(CNC(C)(C)[C@@H](O)c3ccccc3)ccc21
[10]
  pKi: 8.40
[18]
  pKi: < 6.00

## C1=C(c2c[nH]c3ncccc23)CCN(CCCc2ccccc2)C1
[18]
  pKi: 7.54

## CCCCCCNCC[C@H]1CCC[C@@H](c2ccccc2)O1
[2]
  pKi: 7.44
[3]
  pKi: 8.62

## C/C(=C\CN1CCN(Cc2ccc(C(F)(F)F)cc2)CC1)c1ccccc1
[20]; Homo sapiens, U-87 MG, 24 h
  pIC50: 4.55
[20]; u-87mg atcc
  pIC50: 4.65
[21]
  pIC50: 4.65
[22]
  pIC50: 4.72

## C/C(=C\CN1CCN(C(=O)C2CCCC2)CC1)c1ccccc1
[20]; Homo sapiens, U-87 MG, 24 h
  pIC50: 4.41
[21]
  pIC50: 4.41
[22]
  pIC50: 4.95

## COc1cccc(OC)c1[C@H]1CC[C@@H](N2CCN(C3CCCCC3)CC2)CC1
[1]
  pEC50: 6.10
[2]
  pKi: 8.10
PC-3
  pEC50: 4.50
MDCK-MDR1 [23]
  Activity: 70%
[3]
  pKi: 9.59
SK-N-SH
  pEC50: 4.49
MDCK-MDR1 [24]
  Activity: 90%
MDCK-MDR1 [25]
  Activity: 50%

## CCCCCCNCC[C@@H]1CCC[C@H](c2ccccc2)O1
[2]
  pKi: 7.24
[3]
  pKi: 9.02

## CCN1CCN(Cc2cccc3ccccc23)[C@@H](CCO)C1
MCF7 [7]
  pIC50: 5.01
A-427
  pIC50: 5.04
[26]
  pKi: 7.54
RPMI-8226 [27]
  pIC50: 5.89
5637
  pIC50: 5.44
[8]
  pKi: 7.59
[9]
  pKi: 7.80
[28]
  pKi: 8.72

## C/C(=C\CN1CCN(Cc2ccccc2)CC1)c1ccc2ccccc2c1
RPMI-8226 [29]
  Activity: 65%
[30]
  Activity: 34%

## c1ccc(CN2CCN(CC3CSC4(CCCCC4)S3)CC2)cc1 (stereo not given)
[12]
  pKi: 7.12
[13]
  pKi: 8.21
SK-MEL-28 [14]
  pIC50: 4.30
SK-MEL-28 [15]
  pIC50: 4.42

## COc1ccc(/C(C)=C/CN2CCN(Cc3ccc(C(F)(F)F)cc3)CC2)cc1
[20]; Homo sapiens, U-87 MG, 24 h
  pIC50: 4.56
[20]; u-87mg atcc
  pIC50: 4.62
[21]
  pIC50: 4.62
[22]
  pIC50: 4.69

## CCN1CCN(Cc2cccc3ccccc23)[C@H](CCO)C1
MCF7 [7]
  pIC50: 5.04
A-427
  pIC50: 5.30
RPMI-8226 [31]
  Activity: 32%
[26]
  pKi: 8.12
RPMI-8226 [27]
  pIC50: 5.07
5637
  pIC50: 5.32
[8]
  pKi: 7.85
[9]
  pKi: 7.43
[28]
  pKi: 9.05

## OC(CCCN1CCC(O)(c2ccc(Cl)cc2)CC1)c1ccc(F)cc1 (racemic) [HYDROXYHALOPERIDOL]
MCF7 [32]
  Activity: 98%

## CCCN1CCC(c2cccc(S(C)(=O)=O)c2)CC1 [PRIDOPIDINE]
D(2) dopamine receptor
  pKi: 5.00
[5]
  pKi: 7.77

## O=C(CN1CCC(CN2Cc3ccccc3C2=O)CC1)c1ccc(F)cc1 [ROLUPERIDONE]
[33]
  pKi: 8.12
